Earlier results, collected in patent US6645986B2 (Pfizer Products, Inc., priority 2000, dated 2003).
Structures can show the parent of a compound that is named as a salt.

Details: compared with the anhydrous mesylate salt

## C[C@@H]([C@@H](O)c1ccc(O)cc1)N1CCC(O)(c2ccccc2)CC1 [mesylate salt trihydrate, (1S,2S)-1-(4-hydroxyphenyl)-2-(4-hydroxy-4-phenylpiperidin-1-yl)-1-propanol mesylate trihydrate]
  stability of crystalline form: more stable crystalline form than the anhydrous mesylate salt
